These results are taken from US20240209028A1, “CNP COMPOUNDS” (priority 2022, published 2024).

A short description of the data set: PK after i.v. and s.c. administration to Göttingen minipig. Particulars: female, in vivo; for clearance: read-out: CL (ml/hr/kg), Intravenous PK (converted). Summed up: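 Female Göttingen minipigs (6-12 months, ~22 kg) and domestic LYD pigs (4-5 months, ~80 kg) given CNP compounds i.v. (30-60 or 15-43 nmol/kg) or s.c. neck (55-62 or 20-30 nmol/kg) via catheter/pen. EDTA plasma sampled up to 14 days, CNP and cGMP by LC-MS; non-compartmental PK, F from dose-normalized AUC s.c./i.v.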

Where [1] appears, read: iv, Göttingen Minipig, i.v., read-out: T½, iv (converted).
[2] abbreviates: sc, Göttingen Minipig, s.c. bioavailability, read-out: F (%), Subcutaneous PK.
The mark [3] stands for this setting: sc, Göttingen Minipig, s.c., read-out: T½, sc (converted).

Read-outs that look alike come from different tables or passages of the source. Starred links: 1 amine or outer side, 2 acyl side, 3 side chain; linkers in the order of their positions; H or OH if unused. Positions of bridges follow the written chain, without caps; N, C: chain ends. Residues, ends and D or L forms follow the SMILES beside them. *: point of attachment. C18 diacid = O=C(O)CCCCCCCCCCCCCCCCC(=O)*; γGlu = O=C(O)[C@H](CCC(=O)[*:2])N[*:1]; AEEA = NCCOCCOCC(=O)O

Turning to `CC[C@H](C)[C@@H]1NC(=O)[C@H](CCCNC(=N)N)NC(=O)[C@H](CC(=O)O)NC(=O)[C@H](CC(C)C)NC(=O)[C@@H]2CCCN2C(=O)[C@H](CC(C)C)NC(=O)CNC(=O)[C@H](Cc2ccccc2)NC(=O)[C@@H](NC(=O)CNC(=O)[C@H](CCC(N)=O)NC(=O)[C@H](CO)NC(=O)[C@H](CC(C)C)NC(=O)CNC(=O)[C@H](CCCCN)NC(=O)[C@H](CCCCN)NC(=O)[C@H](CCC(N)=O)NC(=O)[C@H](C)NC(=O)CNC(=O)[C@H](CCCCN)NC(=O)[C@H](Cc2ccc(O)cc2)NC(=O)[C@H](CCCCN)NC(=O)[C@H](CCCNC(=N)N)NC(=O)[C@H](C)NC(=O)COCCOCCNC(=O)COCCOCCNC(=O)COCCOCCNC(=O)COCCOCCNC(=O)CC[C@H](NC(=O)CC[C@H](NC(=O)CC[C@H](NC(=O)CC[C@H](NC(=O)CC[C@H](NC(=O)CCCCCCCCCCCCCCCCC(=O)O)C(=O)O)C(=O)O)C(=O)O)C(=O)O)C(=O)O)CSSC[C@@H](C(=O)O)NC(=O)CNC(=O)[C@H](CC(C)C)NC(=O)CNC(=O)[C@H](CO)NC(=O)[C@H](CC(C)C)NC(=O)[C@H](CO)NC(=O)CNC1=O` [Compound 9407] ({C18 diacid-γGlu-γGlu-γGlu-γGlu-γGlu-AEEA-AEEA-AEEA-AEEA}-ARKYKGAQKKGLSQGCFGLPLDRIGSLSGLGC-OH; disulfide 16-32), the clearance (iv, Göttingen Minipig, i.v.) is 1.2 mL/h/kg. Besides, the half-life reads like this: under setting [1], 82 h; under setting [3], 92 h. Further, under setting [2], the bioavailability was 86%.

Consider `CC[C@H](C)[C@@H]1NC(=O)[C@H](CCCNC(=N)N)NC(=O)[C@H](CC(=O)O)NC(=O)[C@H](CC(C)C)NC(=O)[C@@H]2CCCN2C(=O)[C@H](CC(C)C)NC(=O)CNC(=O)[C@H](Cc2ccccc2)NC(=O)[C@@H](NC(=O)CNC(=O)[C@H](CCC(N)=O)NC(=O)[C@H](CO)NC(=O)CNC(=O)CNC(=O)[C@H](CCCCN)NC(=O)[C@H](CCCCN)NC(=O)[C@H](CCC(N)=O)NC(=O)[C@H](C)NC(=O)CNC(=O)[C@H](CCCCN)NC(=O)[C@H](Cc2ccc(O)cc2)NC(=O)COCCOCCNC(=O)COCCOCCNC(=O)COCCOCCNC(=O)COCCOCCNC(=O)CC[C@H](NC(=O)CC[C@H](NC(=O)CCCCCCCCCCCCCCCCC(=O)O)C(=O)O)C(=O)O)CSSC[C@@H](C(=O)O)NC(=O)CNC(=O)[C@H](CC(C)C)NC(=O)CNC(=O)[C@H](CO)NC(=O)[C@H](CC(C)C)NC(=O)[C@H](CO)NC(=O)CNC1=O` [Compound 9435] ({C18 diacid-γGlu-γGlu-AEEA-AEEA-AEEA-AEEA}-YKGAQKKGGSQGCFGLPLDRIGSLSGLGC-OH; disulfide 13-29), for which, for the setting “iv, Göttingen Minipig, i.v.”, the clearance is 1.02 mL/h/kg. Besides, the half-life runs as follows: under setting [1], 77 h; under setting [3], 82 h. For the same compound, the bioavailability under setting [2] is 77%.

Turning to `CC[C@H](C)[C@@H]1NC(=O)[C@H](CCCNC(=N)N)NC(=O)[C@H](CC(=O)O)NC(=O)[C@H](CC(C)C)NC(=O)[C@@H]2CCCN2C(=O)[C@H](CC(C)C)NC(=O)CNC(=O)[C@H](Cc2ccccc2)NC(=O)[C@@H](NC(=O)CNC(=O)[C@H](CCC(N)=O)NC(=O)[C@H](CO)NC(=O)[C@H](CC(C)C)NC(=O)CNC(=O)[C@H](CCCCN)NC(=O)[C@H](CCCCN)NC(=O)[C@H](CCC(N)=O)NC(=O)[C@H](C)NC(=O)CNC(=O)[C@H](CCCCN)NC(=O)[C@H](Cc2ccc(O)cc2)NC(=O)COCCOCCNC(=O)COCCOCCNC(=O)COCCOCCNC(=O)COCCOCCNC(=O)CC[C@H](NC(=O)CC[C@H](NC(=O)CC[C@H](NC(=O)CCCCCCCCCCCCCCCCC(=O)O)C(=O)O)C(=O)O)C(=O)O)CSSC[C@@H](C(=O)O)NC(=O)CNC(=O)[C@H](CC(C)C)NC(=O)CNC(=O)[C@H](CO)NC(=O)[C@H](CC(C)C)NC(=O)[C@H](CO)NC(=O)CNC1=O` [Compound 9480] ({C18 diacid-γGlu-γGlu-γGlu-AEEA-AEEA-AEEA-AEEA}-YKGAQKKGLSQGCFGLPLDRIGSLSGLGC-OH; disulfide 13-29), the clearance (iv, Göttingen Minipig, i.v.) was 1.13 mL/h/kg. Further, the half-life runs as follows: under setting [1], 74 h; under setting [3], 67 h. Moreover, the bioavailability under setting [2] is 87%.

On to `CC[C@H](C)[C@@H]1NC(=O)[C@H](CCCNC(=N)N)NC(=O)[C@H](CC(=O)O)NC(=O)[C@H](CC(C)C)NC(=O)[C@@H]2CCCN2C(=O)[C@H](CC(C)C)NC(=O)CNC(=O)[C@H](Cc2ccccc2)NC(=O)[C@@H](NC(=O)CNC(=O)[C@H](CO)NC(=O)[C@H](CO)NC(=O)[C@H](CC(C)C)NC(=O)CNC(=O)[C@H](CCCCN)NC(=O)[C@H](CCCCN)NC(=O)[C@H](CCC(N)=O)NC(=O)[C@H](C)NC(=O)CNC(=O)[C@H](CCCCN)NC(=O)[C@H](Cc2ccc(O)cc2)NC(=O)[C@H](CCCCN)NC(=O)[C@H](CCCNC(=N)N)NC(=O)[C@H](C)NC(=O)[C@H](CCC(N)=O)NC(=O)[C@@H]2CCCN2C(=O)[C@H](Cc2c[nH]cn2)NC(=O)[C@H](CCC(=O)O)NC(=O)[C@H](CCC(N)=O)NC(=O)CC[C@H](NC(=O)CC[C@H](NC(=O)CC[C@H](NC(=O)CC[C@H](NC(=O)CC[C@H](NC(=O)CCCCCCCCCCCCCCCCC(=O)O)C(=O)O)C(=O)O)C(=O)O)C(=O)O)C(=O)O)CSSC[C@@H](C(=O)O)NC(=O)CNC(=O)[C@H](CC(C)C)NC(=O)CNC(=O)[C@H](CO)NC(=O)[C@H](CC(C)C)NC(=O)[C@H](CO)NC(=O)CNC1=O` [Compound 9482] ({C18 diacid-γGlu-γGlu-γGlu-γGlu-γGlu}-QEHPQARKYKGAQKKGLSSGCFGLPLDRIGSLSGLGC-OH; disulfide 21-37), for which, under “iv, Göttingen Minipig, i.v.”, the clearance was 1.07 mL/h/kg. The half-life was 89 h under setting [1] and 84 h under setting [3]. In addition, the bioavailability under setting [2] worked out at 89%.

The compound `CC[C@H](C)[C@@H]1NC(=O)[C@H](CCCNC(=N)N)NC(=O)[C@H](CCC(=O)O)NC(=O)[C@H](CC(C)C)NC(=O)[C@H](CCCCN)NC(=O)[C@H](CC(C)C)NC(=O)CNC(=O)[C@H](Cc2ccccc2)NC(=O)[C@@H](NC(=O)CNC(=O)[C@H](CCCCN)NC(=O)[C@H](CO)NC(=O)[C@H](CC(C)C)NC(=O)CNC(=O)[C@H](CCCCN)NC(=O)[C@H](CCCCN)NC(=O)[C@H](CCC(N)=O)NC(=O)[C@H](C)NC(=O)CNC(=O)[C@H](CCCCN)NC(=O)[C@H](Cc2ccc(O)cc2)NC(=O)[C@H](CCCCN)NC(=O)[C@H](CCCNC(=N)N)NC(=O)[C@H](C)NC(=O)COCCOCCNC(=O)COCCOCCNC(=O)CC[C@H](NC(=O)CCCCCCCCCCCCCCCCC(=O)O)C(=O)O)CSSC[C@@H](C(=O)O)NC(=O)CNC(=O)[C@H](CC(C)C)NC(=O)CNC(=O)[C@H](CO)NC(=O)[C@H](CC(C)C)NC(=O)[C@H](CO)NC(=O)CNC1=O` [compound 0776] ({C18 diacid-γGlu-AEEA-AEEA}-ARKYKGAQKKGLSKGCFGLKLERIGSLSGLGC-OH; disulfide 16-32) returned a bioavailability (Göttingen minipig and domestic LYD pig, minipig, sc) of 7 to 13%.
